pIC50: −log10 of the molar value. Values after ≈ are worked out from the molar mass of the structure shown.
Tests used:
[1] = Ratio of binding to human DNA topoisomerase II and Staphylococcus aureus DNA topoisomerase IV
Klebsiella pneumoniae = assay: Antibacterial activity against Klebsiella pneumoniae type II was determined; type: functional
[2] = target: T1, DNA topoisomerase 4 subunit A (Staphylococcus aureus subsp. aureus Mu50, UniProt Q931S2); assay: Inhibitory concentration against Staphylococcus aureus DNA topoisomerase IV
T1 sequence (Q931S2 whole entry): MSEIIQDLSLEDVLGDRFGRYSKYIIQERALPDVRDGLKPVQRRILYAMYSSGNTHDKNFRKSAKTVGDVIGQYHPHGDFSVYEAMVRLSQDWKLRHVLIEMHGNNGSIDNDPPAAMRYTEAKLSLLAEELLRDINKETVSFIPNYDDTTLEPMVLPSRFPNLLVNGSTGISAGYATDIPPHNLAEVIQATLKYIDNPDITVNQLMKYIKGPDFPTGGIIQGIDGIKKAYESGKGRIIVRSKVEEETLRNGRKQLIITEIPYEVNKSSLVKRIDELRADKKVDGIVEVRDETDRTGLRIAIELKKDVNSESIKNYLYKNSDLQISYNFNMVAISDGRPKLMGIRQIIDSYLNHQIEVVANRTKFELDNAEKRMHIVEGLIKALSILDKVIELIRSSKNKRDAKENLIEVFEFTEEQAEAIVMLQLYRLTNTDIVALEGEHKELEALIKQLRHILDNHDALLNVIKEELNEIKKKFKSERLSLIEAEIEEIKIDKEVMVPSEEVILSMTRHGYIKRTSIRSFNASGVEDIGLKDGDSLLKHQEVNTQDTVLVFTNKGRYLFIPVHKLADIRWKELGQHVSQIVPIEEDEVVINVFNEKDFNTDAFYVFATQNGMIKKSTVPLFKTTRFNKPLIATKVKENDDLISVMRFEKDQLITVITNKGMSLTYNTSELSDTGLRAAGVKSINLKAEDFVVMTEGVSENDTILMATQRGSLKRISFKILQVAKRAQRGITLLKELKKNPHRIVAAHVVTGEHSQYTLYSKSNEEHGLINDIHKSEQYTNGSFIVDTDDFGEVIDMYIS

DNA topoisomerase II = DNA topoisomerase II (Homo sapiens, UniProt P11388+Q02880); assay: Inhibitory concentration against human DNA topoisomerase II; type: protein assay
Streptococcus mitis = assay: Antibacterial activity against Streptococcus mitis IID685 was determined; type: functional
Streptococcus pyogenes = assay: Antibacterial activity against Streptococcus pyogenes G-36 was determined; type: functional
[3] = tested on: Staphylococcus epidermidis; assay: Antibacterial activity against Staphylococcus epidermidis 56500 was determined; type: functional
Staphylococcus aureus [4] = assay: Antibacterial activity against Staphylococcus aureus FDA 209P was determined; type: functional
Streptococcus pneumoniae = assay: Antibacterial activity against Penicillin-resistant Streptococcus pneumoniae (PRSP) J-24 was determined; type: functional
Escherichia coli = assay: Antibacterial activity against Escherichia coli NIHJ was determined; type: functional
Enterococcus faecalis = assay: Antibacterial activity against Enterococcus faecalis ATCC 19433 was determined; type: functional
Staphylococcus aureus [5] = assay: Antibacterial activity against methicillin-resistant Staphylococcus aureus (MRSA) 870307 was determined; type: functional
[6] = Klebsiella pneumoniae, read-out: MIC
[7] = Streptococcus mitis, read-out: MIC
[8] = Streptococcus pyogenes, read-out: MIC
[9] = Staphylococcus epidermidis, read-out: MIC
[10] = Staphylococcus aureus, read-out: MIC
[11] = Streptococcus pneumoniae, read-out: MIC
[12] = Escherichia coli, read-out: MIC
[13] = Enterococcus faecalis, ATCC 19433, read-out: MIC

SMILES	Selectivity [1]	MIC (Klebsiella pneumoniae; [6])	pIC50 [2]	IC50 (DNA topoisomerase II)	MIC (Streptococcus mitis; [7])	MIC (Streptococcus pyogenes; [8])	MIC [3, 9]	MIC (Staphylococcus aureus [4]; [10])	MIC (Streptococcus pneumoniae; [11])	MIC (Escherichia coli; [12])	MIC (Enterococcus faecalis; [13])	MIC (Staphylococcus aureus [5]; [10])	MIC (Klebsiella pneumoniae)	MIC (Streptococcus mitis)	MIC (Streptococcus pyogenes)	MIC [3]	MIC (Streptococcus pneumoniae)	MIC (Enterococcus faecalis)	MIC (Staphylococcus aureus [5])	further results
Nc1c(F)c(N2C[C@H]3C[C@@H]4C[C@@H]4[C@@H](N)[C@H]3C2)c(F)c2c1c(=O)c(C(=O)O)cn2[C@@H]1C[C@@H]1F (stereo in doubt; 24 (+)) [listing 1 of 2 here]	151																			
Cc1c(N2C[C@H]3CC[C@H]4C[C@@]4(N)[C@H]3C2)c(F)c(N)c2c(=O)c(C(=O)O)cn([C@@H]3C[C@@H]3F)c12	93.2	0.01 µg/mL (≈ 0.0225 µM)	6.09	34.21 µg/mL (≈ 77 µM)	≤ 0.003 µg/mL	≤ 0.003 µg/mL	≤ 0.003 µg/mL	≤ 0.003 µg/mL	0.006 µg/mL (≈ 0.0135 µM)	≤ 0.003 µg/mL	0.02 µg/mL (≈ 0.045 µM)	0.01 µg/mL (≈ 0.0225 µM)								
Nc1c(F)c(N2C[C@H]3CC[C@H]4C[C@@]4(N)[C@H]3C2)c(F)c2c1c(=O)c(C(=O)O)cn2[C@@H]1C[C@@H]1F (stereo in doubt; 13 (+)) [listing 1 of 2 here]	71.3																			
Nc1c(F)c(N2C[C@H]3CCC[C@@H](N)[C@H]3C2)c(F)c2c1c(=O)c(C(=O)O)cn2[C@@H]1C[C@@H]1F (stereo in doubt; 28 (+)) [listing 1 of 2 here]			6.38	7 µg/mL (≈ 16 µM)									0.01 µg/mL (≈ 0.0229 µM)	<=0.003 ug ml-1	<=0.003 ug ml-1	<=0.003 ug ml-1	<=0.003 ug ml-1	0.02 µg/mL (≈ 0.0458 µM)	0.006 µg/mL (≈ 0.0137 µM)	MIC (Staphylococcus aureus [4]): <=0.003 ug ml-1; MIC (Escherichia coli): <=0.003 ug ml-1
C[C@H]1COc2c(N3CCN(C)CC3)c(F)cc3c(=O)c(C(=O)O)cn1c23.C[C@H]1COc2c(N3CCN(C)CC3)c(F)cc3c(=O)c(C(=O)O)cn1c23.O [LEVOFLOXACIN]		0.05 µg/mL			0.39 µg/mL	0.78 µg/mL	0.39 µg/mL	0.2 µg/mL	0.78 µg/mL		0.78 µg/mL	> 6.25 µg/mL								
Nc1c(F)c(N2C[C@H]3CC[C@H]4C[C@@]4(N)[C@H]3C2)c(F)c2c1c(=O)c(C(=O)O)cn2[C@@H]1C[C@@H]1F (stereo in doubt; 13 (+)) [listing 2 of 2 here]			6.17	21.89 µg/mL (≈ 48.8 µM)				≤ 0.003 µg/mL		≤ 0.003 µg/mL			0.01 µg/mL (≈ 0.0223 µM)	<=0.003 ug ml-1	<=0.003 ug ml-1	<=0.003 ug ml-1	<=0.003 ug ml-1	0.02 µg/mL (≈ 0.0446 µM)	0.006 µg/mL (≈ 0.0134 µM)	
Nc1c(F)c(N2C[C@H]3CC[C@H]4C[C@@]4(N)[C@H]3C2)c(F)c2c1c(=O)c(C(=O)O)cn2[C@@H]1C[C@@H]1F (stereo in doubt; 14 (-))													0.05 µg/mL (≈ 0.111 µM)	0.02 µg/mL (≈ 0.0446 µM)	0.05 µg/mL (≈ 0.111 µM)	0.02 µg/mL (≈ 0.0446 µM)	0.02 µg/mL (≈ 0.0446 µM)	0.2 µg/mL (≈ 0.446 µM)	0.2 µg/mL (≈ 0.446 µM)	MIC (Escherichia coli): 0.006 µg/mL (≈ 0.0134 µM)
Nc1c(F)c(N2C[C@H]3C[C@@H]4C[C@@H]4[C@H](N)[C@H]3C2)c(F)c2c1c(=O)c(C(=O)O)cn2[C@@H]1C[C@@H]1F (stereo in doubt; 26 (+)) [listing 1 of 2 here]		0.01 µg/mL (≈ 0.0223 µM)	6.07	6.65 µg/mL (≈ 14.8 µM)	≤ 0.003 µg/mL	0.006 µg/mL (≈ 0.0134 µM)	≤ 0.003 µg/mL	≤ 0.003 µg/mL	≤ 0.003 µg/mL	≤ 0.003 µg/mL	0.02 µg/mL (≈ 0.0446 µM)								0.02 µg/mL (≈ 0.0446 µM)	
Nc1c(F)c(N2C[C@H]3CCC[C@@H](N)[C@H]3C2)c(F)c2c1c(=O)c(C(=O)O)cn2[C@@H]1C[C@@H]1F (stereo in doubt; 29 (-))													0.39 µg/mL (≈ 0.894 µM)	0.1 µg/mL (≈ 0.229 µM)	0.1 µg/mL (≈ 0.229 µM)	0.2 µg/mL (≈ 0.458 µM)	0.1 µg/mL (≈ 0.229 µM)	0.78 µg/mL (≈ 1.79 µM)	0.78 µg/mL (≈ 1.79 µM)	MIC (Staphylococcus aureus [4]): 0.02 µg/mL (≈ 0.0458 µM); MIC (Escherichia coli): 0.1 µg/mL (≈ 0.229 µM)
Nc1c(F)c(N2C[C@H]3C[C@@H]4C[C@@H]4[C@@H](N)[C@H]3C2)c(F)c2c1c(=O)c(C(=O)O)cn2[C@@H]1C[C@@H]1F (stereo in doubt; 25 (-))													0.1 µg/mL (≈ 0.223 µM)	0.1 µg/mL (≈ 0.223 µM)	0.39 µg/mL (≈ 0.87 µM)	0.05 µg/mL (≈ 0.111 µM)	0.1 µg/mL (≈ 0.223 µM)	0.2 µg/mL (≈ 0.446 µM)	1.56 µg/mL (≈ 3.48 µM)	MIC (Staphylococcus aureus [4]): 0.006 µg/mL (≈ 0.0134 µM); MIC (Escherichia coli): 0.01 µg/mL (≈ 0.0223 µM)
Nc1c(F)c(N2C[C@H]3C[C@@H]4C[C@@H]4[C@H](N)[C@H]3C2)c(F)c2c1c(=O)c(C(=O)O)cn2[C@@H]1C[C@@H]1F (stereo in doubt; 27 (-))														0.006 µg/mL (≈ 0.0134 µM)	0.01 µg/mL (≈ 0.0223 µM)	0.006 µg/mL (≈ 0.0134 µM)	0.006 µg/mL (≈ 0.0134 µM)		0.2 µg/mL (≈ 0.446 µM)	
Nc1c(F)c(N2C[C@H]3C[C@@H]4C[C@@H]4[C@H](N)[C@H]3C2)c(F)c2c1c(=O)c(C(=O)O)cn2[C@@H]1C[C@@H]1F (stereo in doubt; 26 (+)) [listing 2 of 2 here]	17.3																			
Nc1c(F)c(N2C[C@H]3C[C@@H]4C[C@@H]4[C@@H](N)[C@H]3C2)c(F)c2c1c(=O)c(C(=O)O)cn2[C@@H]1C[C@@H]1F (stereo in doubt; 24 (+)) [listing 2 of 2 here]			6.51	22.47 µg/mL (≈ 50.1 µM)				≤ 0.003 µg/mL					0.01 µg/mL (≈ 0.0223 µM)	<=0.003 ug ml-1	<=0.003 ug ml-1	<=0.003 ug ml-1	<=0.003 ug ml-1	0.02 µg/mL (≈ 0.0446 µM)	0.01 µg/mL (≈ 0.0223 µM)	MIC (Escherichia coli): <=0.003 ug ml-1
CN[C@H](CC(C)C)C(=O)N[C@H]1C(=O)N[C@@H](CC(N)=O)C(=O)N[C@H]2C(=O)N[C@H]3C(=O)N[C@H](C(=O)N[C@H](C(=O)O)c4cc(O)cc(O)c4-c4cc3ccc4O)[C@H](O)c3ccc(c(Cl)c3)Oc3cc2cc(c3O[C@@H]2O[C@H](CO)[C@@H](O)[C@H](O)[C@H]2O[C@H]2C[C@](C)(N)[C@H](O)[C@H](C)O2)Oc2ccc(cc2Cl)[C@H]1O [VANCOMYCIN]		> 6.25 µg/mL			0.39 µg/mL (≈ 0.269 µM)	0.39 µg/mL (≈ 0.269 µM)		0.2 µg/mL (≈ 0.138 µM)	0.2 µg/mL (≈ 0.138 µM)	> 6.25 µg/mL	0.39 µg/mL (≈ 0.269 µM)	0.39 µg/mL (≈ 0.269 µM)								
COc1c(N2C[C@@H]3CCCN[C@@H]3C2)c(F)cc2c(=O)c(C(=O)O)cn(C3CC3)c12 [MOXIFLOXACIN]		0.05 µg/mL (≈ 0.125 µM)			0.1 µg/mL (≈ 0.249 µM)	0.2 µg/mL (≈ 0.498 µM)	0.1 µg/mL (≈ 0.249 µM)	0.02 µg/mL (≈ 0.0498 µM)	0.02 µg/mL (≈ 0.0498 µM)	0.006 µg/mL (≈ 0.0149 µM)	0.2 µg/mL (≈ 0.498 µM)	0.78 µg/mL (≈ 1.94 µM)								
Nc1c(F)c(N2C[C@H]3CCC[C@@H](N)[C@H]3C2)c(F)c2c1c(=O)c(C(=O)O)cn2[C@@H]1C[C@@H]1F (stereo in doubt; 28 (+)) [listing 2 of 2 here]	38.3																			
Cc1c(N2C[C@H]3CCC[C@@H](N)[C@H]3C2)c(F)c(N)c2c(=O)c(C(=O)O)cn([C@@H]3C[C@@H]3F)c12	14.7	0.02 µg/mL (≈ 0.0462 µM)	6.14	4.66 µg/mL (≈ 10.8 µM)	≤ 0.003 µg/mL	≤ 0.003 µg/mL	≤ 0.003 µg/mL	0.006 µg/mL (≈ 0.0139 µM)	≤ 0.003 µg/mL	0.006 µg/mL (≈ 0.0139 µM)	0.02 µg/mL (≈ 0.0462 µM)	0.01 µg/mL (≈ 0.0231 µM)								
CC(=O)NC[C@H]1CN(c2ccc(N3CCOCC3)c(F)c2)C(=O)O1 [LINEZOLID]		> 6.25 µg/mL			1.56 µg/mL (≈ 4.62 µM)	3.13 µg/mL (≈ 9.28 µM)	1.56 µg/mL (≈ 4.62 µM)	0.78 µg/mL (≈ 2.31 µM)	0.78 µg/mL (≈ 2.31 µM)	6.25 µg/mL (≈ 18.5 µM)	3.13 µg/mL (≈ 9.28 µM)	1.56 µg/mL (≈ 4.62 µM)								

— ChEMBL document CHEMBL1137908, “Synthesis and antibacterial activity of novel 6-fluoro-1-[(1R,2S)-2-fluorocyclopropan-1-yl]-4-oxoquinoline-3-carboxylic acids bearing cyclopropane-fused 2-amino-8-azabicyclo[4.3.0]nonan-8-yl substituents at the C-7 position” (Bioorg Med Chem Lett, 2004)
